# Experimental data published in patent US9006261B2, “Fluorescent perylene derivatives for direct detection of heparin” (priority 2009, dated 2015).
# Assay: Fluorescence response to Dalteparin sodium in buffer, serum and plasma
# Assay type: binding
# Conditions: fluorescence of perylene diimide derivative/LMWH mixture
# Description: The response of the perylene diimide derivative to heparin was additionally studied using Dalteparin sodium (0.4-0.8 IU/mL), a clinically important LMWH preparation with a mean molecular weight of 5000 g/mol. Fluorescence was recorded with a portable fluorometer, equipped with a 485 nm excitation filter and a 665 nm cutoff emission filter. The latter filter offered good signal-to-background ratio since serum/plasma autofluorescence is very low above 665 nm. The fluorescence of the perylene diimide derivative decreased approximately linearly (FIG. 4c) with increasing LMWH concentration, in buffered solution. The binding ration was calculated to be one perylene diimide derivative/2 disaccharides of heparin. Solutions containing 20 vol % serum or plasma required an only slightly larger (about 1.1-fold) LMWH concentration to trigger the same relative fluorescence decrease as observed in buffered solution.
substance,measurement,value
protamine,reversibility of LMWH binding on addition of protamine,fluorescence was restored
